Numbers after ± are expanded uncertainties.
Tests used:
[1] = Crystal; DTA
[2] = Molar enthalpy of transition or fusion; settings: Crystal; DSC

CCCCCCCCCCCCCCCc1cccc(O)c1 [3-pentadecylphenol]
Normal melting temperature [1]: 49.20 ± 1.1 °C | Molar enthalpy of transition or fusion [2]: 38.1 ± 0.82 kJ/mol
